According to patent US20190246658A1, “METHODS OF HANDLING PAPAYA” (AGROFRESH INC., priority 2013, published 2019):

How the values were obtained:
[1] = tested on: Papayas ‘Golden’; assay: Example 1: pulp firmness, external (FTA, 8 mm probe); assay type: in vivo, papaya; conditions: 100 ppb of MCP
Method: (§1) Papayas ‘Golden’ were harvested in Linhares—Espírito Santo—Brazil. The harvested fruits were packed in MAP Bags and put in cardboard boxes.
(§2) The appropriate weight of papayas was placed in each bag after harvest. Bags were placed in the same cardboard boxes used to export the fruits. Papayas then were cold stored at (11° C.) at the Laboratory.
(§3) The Test Protocol that was used was as follows. 36 MAP bags were packed. Each bag held approximately 3.8 kg (8.4 lb) of papayas. One such bag was packed in each cardboard box. Total weight of papayas in MAP bags was approximately 137 kg. Approximately 91 kg of papayas were placed into cardboard boxes identical to those used for the MAP bags.
(§4) The MAP-packaged papayas were packaged as follows: Nine fruits, approximately 3.8 kg were carefully placed into microperforated bags, and the bags were sealed by twisting the open side of the bag, folding down the twisted end, and placing a rubber band around the twisted and folded end of the bag.
(§5) All papayas were kept at cold temperature (11° C.) during 27 days and after that the fruits (packed in MAP bags or not) were put in room temperature (22° C.) during 8 days.
(§6) One day after harvest, when the papayas had around 25 lbf of average firmness, each treatment set was marked, placed in a hermetical chamber at cold temperature (11° C.). All chambers were of equal size and packed the same way. Treatment was for 12 hours. In the chambers for the 3 “MCP” treatment groups, at the beginning of the treatment period, SmartFresh™ were placed in the chamber. The amount of SmartFresh™ was chosen to achieve the indicated concentration of 1-methylcyclopropene in the atmosphere of the chamber.
(§7) Evaluation for skin color and firmness was as follows. Day “zero” was the day the papayas were removed from the chamber and placed in storage.
(§8) For the Pulp Firmness evaluation two measurements where done, one for External Firmness and another for Internal Firmness. For External Firmness, the papayas had the skin removed with a peeler and the pulp firmness was measured with a Firmness Texture Analyzer (FTA) with a probe of 8 mm. For Internal Firmness, the papayas were cut transversally and a measurement close to the center of the fruit was taken with the FTA.

[2] = tested on: Papayas ‘Golden’; assay: Example 1: pulp firmness, internal (FTA); assay type: in vivo, papaya; conditions: for Pulp Firmness - Internal: 100 ppb of MCP
Method: as §1, §2, §3, §4, §5, §6, §7, §8

[3] = tested on: Papayas ‘Golden’; assay: Example 2 (yellow stage): percentage of fruits with ideal internal pulp firmness (2.5-7.0 lbf); assay type: in vivo, papaya; conditions: 500 ppb of MCP, ideal = between 2.5 and 7.0 lbf
Method: (§9) A similar test to Example 1 but papayas are tested during their yellow stage. Papayas ‘Golden’ were harvested in Linhares—Espírito Santo—Brazil. The fruits were packed in MAP Bags and put in cardboard boxes.
(§10) The fruits were first left at room temperature during 3 days to reach yellow maturity stage.
(§11) After that the appropriate weight of papayas was placed in each bag after harvest. Bags were placed in the same cardboard boxes used to export the fruits. Papayas then were cold stored at (11° C.) at the Laboratory.
as §3, with “18” for “36”, “68” for “137”, “68” for “91”
as §4
(§12) All papayas were kept at cold temperature (11° C.) during 26 days and after that the fruits (packed in MAP bags or not) were put in room temperature (22° C.) during 8 days.
(§13) After the 3 days for maturation at room temperature, when the papayas had around 5 lbf of average firmness, each treatment set was marked, placed in a hermetical chamber at cold temperature (11° C.). All chambers were of equal size and packed the same way. Treatment was for 12 hr. In the chambers for the 2 “MCP” treatment groups, at the beginning of the treatment period, SmartFresh™ were placed in the chamber. The amount of SmartFresh™ was chosen to achieve the indicated concentration of 1-methylcyclopropene in the atmosphere of the chamber.
as §8, with “were” for “where”
The desirable internal pulp firmness for consumption of papayas is between 2.5 and 7.0 lbf. The percentage of fruits with internal pulp firmness between 2.5 and 7.0 lbf was calculated.

[4] = tested on: Papayas ‘Golden’; assay: Example 2 (yellow stage): papaya skin color rating; assay type: in vivo; conditions: for Skin color ratings: 500 ppb of MCP, scale 1 green to 5 yellow
Method: as §9, §10, §11
as §3, with “18” for “36”, “68” for “137”, “68” for “91”
as §4, §12, §13, §7
(§14) The Papaya Skin Color was rated with the following scale: 1: green; 2: approximately 25%; 3: approximately 50% colored; 4: approximately 75% colored; 5: yellow.

[5] = tested on: Papayas ‘Golden’; assay: Example 2 (yellow stage): pulp firmness, external; assay type: in vivo, papaya; conditions: for Pulp Firmness - External: 500 ppb of MCP
Method: as §9, §10, §11
as §3, with “18” for “36”, “68” for “137”, “68” for “91”
as §4, §12, §13, §7
as §8, with “were” for “where”

[6] = tested on: Papayas ‘Golden’; assay: Example 1: papaya skin color rating; assay type: in vivo; conditions: for Skin color ratings: 100 ppb of MCP, scale 1 green to 5 yellow
Method: as §1, §2, §3, §4, §5, §6, §7, §14

[7] = MAP bag, 27 days at 11° C. then 0 days @ 22° C.
[8] = MAP bag, 27 days at 11° C. then 4 days @ 22° C.
[9] = MAP bag, 27 days at 11° C. then 8 days @ 22° C.
[10] = No Bag, 27 days at 11° C. then 0 days @ 22° C.
[11] = No Bag, 27 days at 11° C. then 4 days @ 22° C.
[12] = No Bag, 27 days at 11° C. then 8 days @ 22° C.
[13] = MAP bag, 26 days at 11° C. then 0 days @ 22° C.
[14] = MAP bag, 26 days at 11° C. then 4 days @ 22° C.
[15] = MAP bag, 26 days at 11° C. then 8 days @ 22° C.
[16] = No Bag, 26 days at 11° C. then 0 days @ 22° C.
[17] = No Bag, 26 days at 11° C. then 4 days @ 22° C.
[18] = No Bag, 26 days at 11° C. then 8 days @ 22° C.

CC1=CC1 [MCP, 1-methylcyclopropene]
Pulp Firmness - External [1, 7]: 17.1 lbf | Pulp Firmness - External [1, 8]: 17.0 lbf | Pulp Firmness - External [1, 9]: 6.2 lbf | Pulp Firmness - External [1, 10]: 25.0 lbf | Pulp Firmness - External [1, 11]: 23.4 lbf | Pulp Firmness - External [1, 12]: 7.8 lbf | internal firmness during shelf-life, in words ([2]; 1-MCP alone (no MAP)): too high internal firmness | Pulp Firmness - Internal [2, 7]: 3.3 lbf | Pulp Firmness - Internal [2, 8]: 3.2 lbf | Pulp Firmness - Internal [2, 9]: 1.5 lbf | Pulp Firmness - Internal [2, 10]: 16.9 lbf | Pulp Firmness - Internal [2, 11]: 12.2 lbf | Pulp Firmness - Internal [2, 12]: 3.2 lbf | Percentage of fruits with ideal internal pulp firmness [3, 13]: 77.08% | Percentage of fruits with ideal internal pulp firmness [3, 14]: 28.57% | Percentage of fruits with ideal internal pulp firmness [3, 15]: 0.00% | Percentage of fruits with ideal internal pulp firmness [3, 16]: 60.87% | Percentage of fruits with ideal internal pulp firmness [3, 17]: 12.90% | Percentage of fruits with ideal internal pulp firmness [3, 18]: 0.00% | papayas color, in words ([4]; 1-MCP alone (no MAP)): did not hold the papayas color | Skin color ratings [4, 13]: 2.18 | Skin color ratings [4, 14]: 3.62 | Skin color ratings [4, 15]: 4.88 | Skin color ratings [4, 16]: 2.70 | Skin color ratings [4, 17]: 4.91 | Skin color ratings [4, 18]: 5.00 | external firmness during shelf-life, in words ([5]; 1-MCP alone, compared to the present invention (1-MCP + MAP)): lower efficiency to maintain external firmness | Pulp Firmness - External [5, 13]: 3.84 lbf | Pulp Firmness - External [5, 14]: 1.98 lbf | Pulp Firmness - External [5, 15]: 1.30 lbf | Pulp Firmness - External [5, 16]: 3.03 lbf | Pulp Firmness - External [5, 17]: 1.88 lbf | Pulp Firmness - External [5, 18]: 1.11 lbf | papayas color, in words ([6]; 1-MCP alone (no MAP)): did not hold the papayas color | Skin color ratings [6, 7]: 2.14 | Skin color ratings [6, 8]: 2.74 | Skin color ratings [6, 9]: 3.46 | Skin color ratings [6, 10]: 1.70 | Skin color ratings [6, 11]: 4.28 | Skin color ratings [6, 12]: 4.44
